From ChEMBL document CHEMBL4049402, “Synthesis and cytotoxic activity of novel tetrahydrobenzodifuran-imidazolium salt derivatives” (Bioorg Med Chem Lett, 2017) come the findings set out here.

The subject of one assay is HL-60. As to the kind of experiment: Cytotoxicity against human HL60 cells after 48 hrs by MTT assay. Type of assay: functional, cell-based. Background: Tetrazolium dyes change colour on reduction, which living cells bring about.
Assay [1] has as its system SMMC-7721. As to the kind of experiment: Cytotoxicity against human SMMC7721 cells after 48 hrs by MTT assay. Type of assay: functional, cell-based. Conditions: Homo sapiens, SMMC-7721, 48 h.
For the next assay, the system named is A549. As to the kind of experiment: Cytotoxicity against human A549 cells after 48 hrs by MTT assay. Type of assay: functional, cell-based. Particulars: Homo sapiens, A549, 48 h.
The test system of assay [2] is MCF7. The assay can be described thus: Cytotoxicity against human MCF7 cells after 48 hrs by MTT assay. It is filed as functional, cell-based.
In another assay the test system is SW480. As to the kind of experiment: Cytotoxicity against human SW480 cells after 48 hrs by MTT assay. Type of assay: functional, cell-based. Particulars: Homo sapiens, SW480, 48 h.
In assay [3] the test system is SMMC-7721. The assay can be described thus: Potency index, ratio of cisplatin IC50 to compound IC50 for human SMMC7721 cells. It is filed as functional.
For assay [4], the system named is MCF7. The assay can be described thus: Potency index, ratio of cisplatin IC50 to compound IC50 for human MCF7 cells. It is filed as functional.
The subject of assay [5] is SMMC-7721. The assay can be described thus: Induction of apoptosis in human SMMC7721 cells assessed as live cells at 4 uM after 48 hrs by Annexin-V-FITC/propidium iodide staining based flow cytometry (reference value: 92.6%). It is filed as functional.
Assay [6] has as its system SMMC-7721. The assay can be described thus: Induction of apoptosis in human SMMC7721 cells assessed as early apoptotic cells at 4 uM after 48 hrs by Annexin-V-FITC/propidium iodide staining based flow cytometry (reference value: 1.82%). It is filed as functional.
Assay [7] deals with SMMC-7721. As to the kind of experiment: Induction of apoptosis in human SMMC7721 cells assessed as late apoptotic cells at 4 uM after 48 hrs by Annexin-V-FITC/propidium iodide staining based flow cytometry (reference value: 2.42%). It is filed as functional. (In general: A flow cytometer gives signals particle by particle.)
Assay [8] relates to SMMC-7721. The assay can be described thus: Induction of apoptosis in human SMMC7721 cells assessed as necrotic cells at 4 uM after 48 hrs by Annexin-V-FITC/propidium iodide staining based flow cytometry (reference value: 3.18%). It is filed as functional.
Assay [9] concerns SMMC-7721. The assay can be described thus: Induction of apoptosis in human SMMC7721 cells assessed as live cells at 8 uM after 48 hrs by Annexin-V-FITC/propidium iodide staining based flow cytometry (reference value: 92.6%). It is filed as functional.
Assay [10] relates to SMMC-7721. The assay can be described thus: Induction of apoptosis in human SMMC7721 cells assessed as early apoptotic cells at 8 uM after 48 hrs by Annexin-V-FITC/propidium iodide staining based flow cytometry (reference value: 1.82%). It is filed as functional.
In assay [11] the test system is SMMC-7721. The assay can be described thus: Induction of apoptosis in human SMMC7721 cells assessed as late apoptotic cells at 8 uM after 48 hrs by Annexin-V-FITC/propidium iodide staining based flow cytometry (reference value: 2.42%). It is filed as functional.
Assay [12] deals with SMMC-7721. The assay can be described thus: Induction of apoptosis in human SMMC7721 cells assessed as necrotic cells at 8 uM after 48 hrs by Annexin-V-FITC/propidium iodide staining based flow cytometry (reference value: 3.18%). It is filed as functional.
The test system of assay [13] is SMMC-7721. As to the kind of experiment: Induction of apoptosis in human SMMC7721 cells assessed as live cells at 12 uM after 48 hrs by Annexin-V-FITC/propidium iodide staining based flow cytometry (reference value: 92.6%). It is filed as functional.
Assay [14] relates to SMMC-7721. As to the kind of experiment: Induction of apoptosis in human SMMC7721 cells assessed as early apoptotic cells at 12 uM after 48 hrs by Annexin-V-FITC/propidium iodide staining based flow cytometry (reference value: 1.82%). It is filed as functional.
Assay [15] relates to SMMC-7721. As to the kind of experiment: Induction of apoptosis in human SMMC7721 cells assessed as late apoptotic cells at 12 uM after 48 hrs by Annexin-V-FITC/propidium iodide staining based flow cytometry (reference value: 2.42%). Type of assay: functional.
Assay [16] deals with SMMC-7721. As to the kind of experiment: Induction of apoptosis in human SMMC7721 cells assessed as necrotic cells at 12 uM after 48 hrs by Annexin-V-FITC/propidium iodide staining based flow cytometry (reference value: 3.18%). Type of assay: functional.
Assay [17] concerns SMMC-7721. As to the kind of experiment: Induction of apoptosis in human SMMC7721 cells assessed as live cells at 16 uM after 48 hrs by Annexin-V-FITC/propidium iodide staining based flow cytometry (reference value: 92.6%). It is filed as functional.
Assay [18] has as its system SMMC-7721. The assay can be described thus: Induction of apoptosis in human SMMC7721 cells assessed as early apoptotic cells at 16 uM after 48 hrs by Annexin-V-FITC/propidium iodide staining based flow cytometry (reference value: 1.82%). It is filed as functional.
Assay [19] relates to SMMC-7721. The assay can be described thus: Induction of apoptosis in human SMMC7721 cells assessed as late apoptotic cells at 16 uM after 48 hrs by Annexin-V-FITC/propidium iodide staining based flow cytometry (reference value: 2.42%). Type of assay: functional.
Assay [20] deals with SMMC-7721. The assay can be described thus: Induction of apoptosis in human SMMC7721 cells assessed as necrotic cells at 16 uM after 48 hrs by Annexin-V-FITC/propidium iodide staining based flow cytometry (reference value: 3.18%). Type of assay: functional.
For assay [21], the system named is SMMC-7721. As to the kind of experiment: Cell cycle arrest in human SMMC7721 cells assessed as accumulation at G0/G1 phase at 2 uM after 24 hrs by propidium iodide staining based flow cytometry (reference value: 70.12 +/- 0.18%). Type of assay: functional.
For assay [22], the system named is SMMC-7721. As to the kind of experiment: Cell cycle arrest in human SMMC7721 cells assessed as accumulation at G0/G1 phase at 4 uM after 24 hrs by propidium iodide staining based flow cytometry (reference value: 70.12 +/- 0.18%). It is filed as functional.
Assay [23] concerns SMMC-7721. The assay can be described thus: Cell cycle arrest in human SMMC7721 cells assessed as accumulation at S phase at 2 uM after 24 hrs by propidium iodide staining based flow cytometry (reference value: 20.18 +/- 0.02%). It is filed as functional.
The test system of assay [24] is SMMC-7721. As to the kind of experiment: Cell cycle arrest in human SMMC7721 cells assessed as accumulation at S phase at 4 uM after 24 hrs by propidium iodide staining based flow cytometry (reference value: 20.18 +/- 0.02%). Type of assay: functional.
For assay [25], the system named is SMMC-7721. As to the kind of experiment: Cell cycle arrest in human SMMC7721 cells assessed as accumulation at G2/M phase at 2 uM after 24 hrs by propidium iodide staining based flow cytometry (reference value: 3.12 +/- 0.02%). It is filed as functional.
For assay [26], the system named is SMMC-7721. As to the kind of experiment: Cell cycle arrest in human SMMC7721 cells assessed as accumulation at G2/M phase at 4 uM after 24 hrs by propidium iodide staining based flow cytometry (reference value: 3.12 +/- 0.02%). Type of assay: functional.
For assay [27], the system named is SMMC-7721. The assay can be described thus: Cell cycle arrest in human SMMC7721 cells assessed as increase in G1 population after 24 hrs by propidium iodide staining based flow cytometry. Type of assay: functional.

By IC50 is commonly meant the concentration needed to halve the response being measured. The low end stands for greater potency, the high end for weaker potency.

SMILES strings stand for the structures.

For `Cc1n(Cc2c3c(cc4c2OCC4)OCC3)c2ccccc2[n+]1CC(=O)c1ccc2ccccc2c1.[Br-]`, the IC50 was 0.8 µM in the assay with HL-60 (Homo sapiens, HL-60, 48 h); 4.52 µM in the assay on SMMC-7721 [1]; 6.1 µM with A549; 1.65 µM in the assay on MCF7 [2] (Homo sapiens, MCF7, 48 h); 4.49 µM with SW480. In addition, the “Ratio IC50” value was 2.7 in the assay on SMMC-7721 [3] and 8.4 in the assay with MCF7 [4]. The Activity is listed as 91.9% with SMMC-7721 [5]; 1.43% with SMMC-7721 [6]; 3.18% with SMMC-7721 [7]; 3.44% with SMMC-7721 [8]; 87.1% in the assay with SMMC-7721 [9]; 0.86% in the assay with SMMC-7721 [10]. The Activity is listed as 4.64% in the assay with SMMC-7721 [11]; 7.42% in the assay with SMMC-7721 [12]; 30.7% with SMMC-7721 [13]; 0.98% with SMMC-7721 [14]; 37.3% with SMMC-7721 [15]; 31% in the assay with SMMC-7721 [16]. Moreover, the Activity in the assay with SMMC-7721 [17] was found to be 0.69%; in the assay with SMMC-7721 [18] it was 0.43%; in the assay with SMMC-7721 [19], 92.4%; in the assay with SMMC-7721 [20] it was 6.48%; in the assay with SMMC-7721 [21], 70.58%; with SMMC-7721 [22], 79.57%. Besides, the Activity is 14.85% in the assay with SMMC-7721 [23]; 8.75% in the assay on SMMC-7721 [24]; 4.37% in the assay with SMMC-7721 [25]; 0.94% in the assay with SMMC-7721 [26]; “Dose-dependent effect” in the assay with SMMC-7721 [27].
In the case of `Cc1cc2c(cc1C)[n+](Cc1ccc3ccccc3c1)cn2Cc1c2c(cc3c1OCC3)OCC2`, the IC50 in the assay on HL-60 (hl-60) is 1.06 µM; in the assay on SMMC-7721 [1], 2.99 µM; with A549, 4.34 µM; with MCF7 [2] (mcf7) it was 3.94 µM; in the assay on SW480, 3.48 µM.
Consider `Cc1n(Cc2c3c(cc4c2OCC4)OCC3)c2ccccc2[n+]1Cc1ccc([N+](=O)[O-])cc1`, for which the IC50 in the assay with HL-60 (Homo sapiens, HL-60, 48 h) is above 20 µM; in the assay on SMMC-7721 [1], above 20 µM; in the assay with A549, above 20 µM; in the assay on MCF7 [2] (Homo sapiens, MCF7, 48 h) it was above 20 µM; in the assay with SW480 it was above 20 µM.
Regarding `O=C(C[n+]1cn(Cc2c3c(cc4c2OCC4)OCC3)c2ccccc21)c1ccc(Br)cc1`, the IC50 in the assay with HL-60 (Homo sapiens, HL-60, 48 h) is 5.81 µM; with SMMC-7721 [1], 5.95 µM; in the assay with A549 it was 16.1 µM; with MCF7 [2] (Homo sapiens, MCF7, 48 h) it was 5.12 µM; in the assay on SW480, 5.11 µM.
As to `Cc1ccc(C[n+]2cn(Cc3c4c(cc5c3OCC5)OCC4)c3cc(C)c(C)cc32)cc1`, the IC50 with HL-60 (hl-60) was found to be 1.58 µM; in the assay on SMMC-7721 [1] it was 4.43 µM; in the assay with A549, 5.82 µM; in the assay on MCF7 [2] (Homo sapiens, MCF7, 48 h), 7.39 µM; in the assay with SW480 it was 6.15 µM.
Turning to `O=[N+]([O-])c1ccc(C[n+]2cn(Cc3c4c(cc5c3OCC5)OCC4)c3ccccc32)cc1`, the IC50 in the assay with HL-60 (Homo sapiens, HL-60, 48 h) was above 20 µM; with SMMC-7721 [1] it was above 20 µM; in the assay on A549 it was above 20 µM; in the assay with MCF7 [2] (Homo sapiens, MCF7, 48 h), above 20 µM; in the assay with SW480 it was above 20 µM.
